Patent US20040072738A1, “Analogues of thiocoraline and be-22179” (priority 2000, published 2004)
Bridge positions count the residues as written; N and C are the ends. Square brackets hold non-standard residues; d marks the D form. Peptide text beside a SMILES is read from it. I, II: the chains in the order shown. * marks the point of attachment. Quinaldoyl(3-OH) = O=C(c1nc2ccccc2cc1O)*; NMeC = CN[C@@H](CS)C(=O)O

Assays:
[1] = tested on: supercoiled ΦX174 DNA; assay: unwinding and rewinding of negatively supercoiled DNA, agarose gel electrophoresis; format: biochemical
From the text: Confirmation that thiocoraline and BE-22179 bind to DNA with bisintercalation was derived from their ability to induce the unwinding of negatively supercoiled DNA. This was established by their ability to gradually decrease the agarose gel electrophoresis mobility of supercoiled ΦX174 DNA (unwinding) at increasing concentrations followed by a return to normal mobility (rewinding) at even higher concentrations. Under the conditions employed, echinomycin unwound ΦX174 DNA at a 0.044 agent/base pair ratio (FIG. 11 and FIG. 12). Thiocoraline completely unwound ΦX174 DNA at a higher 0.11 agent/base pair ratio, whereas BE-22179 required even higher concentrations producing the unwinding at an agent/base pair ratio of 1.1. […] Thus, the distinctions in 1 and 2 and echinomycin detected here appear to be related to the nature of the cyclic depsipeptide and not the structure of the chromophore.
FIG. 8 is a table of comparative DNA binding properties. ^aCalf thymus DNA, KB=apparent binding constant determined by fluorescence quenching. The value in paren-theses is the agent/base pair ratio at saturated high-affinity binding and may be considered a measure of the selectivity of binding. ^bAgent/base pair ratio required to unwind negatively supercoiled FX174 DNA (form I to form II gel mobility, 0.9% agarose gel). ^cAgent/base pair ratio required to induce complete rewinding or positive super-coiling of FX174 DNA (form II to form I gel mobility, 0.9% agarose gel). ^dBinding constant established by footprinting at a 5′-CCGC site (FIG. 9).
(A) Lane 1, untreated supercoiled FX174 DNA, 95% form 1 and 5% form II; lanes 2-8, thiocoraline-treated FX174 DNA; lanes 9-14, echinomycin-treated FX174 DNA. The [agent]-to-[base pair] ratios were 0.022 (lanes 2 and 9), 0.033 (lanes 3 and 10), 0.044 (lanes 4 and 11), 0.066 (lanes 5 and 12), 0.11 (lanes 6 and 13), 0.22 (lanes 7 and 14), and 0.44 (lane 8). (B) Lane 1, untreated supercoiled FX174 DNA, lanes 2-12, BE-22179-treated FX174 DNA. The [agent]-to-[base pair] ratios were 0.022, (lane 2), 0.033 (lane 3), 0.044 (lane 4), 0.066 (lane 5), 0.11 (lane 6), 0.22 (lane 7), and 0.33 (lane 8), 0.44 (lane 9), 0.66 (lane 10), 1.1 (lane 11), and 2.2 (lane 12). (C) Lane 1, untreated supercoiled FX174 DNA, 95% form 1 and 5% form II; lanes 2-8, thiocoraline analogue (27)-treated FX174 DNA. The [agent]-to-[base pair] ratios were 0.022 (lane 2), 0.033 (lane 3), 0.044 (lane 4), 0.066 (lane 5), 0.11 (lane 6), 0.22 (lane 7), and 0.44 (lane 8).

[2] = biological target: HIV-1 reverse transcriptase (Human immunodeficiency virus type 1 group M subtype B, UniProt P03366); assay: inhibition of HIV-1 reverse transcriptase; format: biochemical
[3] = biological target: T1, DNA polymerase α (Homo sapiens, UniProt P09884); details: at concentrations that inhibit cell cycle progression and clonogenicity; cited from earlier work
T1 sequence (P09884 1-1462): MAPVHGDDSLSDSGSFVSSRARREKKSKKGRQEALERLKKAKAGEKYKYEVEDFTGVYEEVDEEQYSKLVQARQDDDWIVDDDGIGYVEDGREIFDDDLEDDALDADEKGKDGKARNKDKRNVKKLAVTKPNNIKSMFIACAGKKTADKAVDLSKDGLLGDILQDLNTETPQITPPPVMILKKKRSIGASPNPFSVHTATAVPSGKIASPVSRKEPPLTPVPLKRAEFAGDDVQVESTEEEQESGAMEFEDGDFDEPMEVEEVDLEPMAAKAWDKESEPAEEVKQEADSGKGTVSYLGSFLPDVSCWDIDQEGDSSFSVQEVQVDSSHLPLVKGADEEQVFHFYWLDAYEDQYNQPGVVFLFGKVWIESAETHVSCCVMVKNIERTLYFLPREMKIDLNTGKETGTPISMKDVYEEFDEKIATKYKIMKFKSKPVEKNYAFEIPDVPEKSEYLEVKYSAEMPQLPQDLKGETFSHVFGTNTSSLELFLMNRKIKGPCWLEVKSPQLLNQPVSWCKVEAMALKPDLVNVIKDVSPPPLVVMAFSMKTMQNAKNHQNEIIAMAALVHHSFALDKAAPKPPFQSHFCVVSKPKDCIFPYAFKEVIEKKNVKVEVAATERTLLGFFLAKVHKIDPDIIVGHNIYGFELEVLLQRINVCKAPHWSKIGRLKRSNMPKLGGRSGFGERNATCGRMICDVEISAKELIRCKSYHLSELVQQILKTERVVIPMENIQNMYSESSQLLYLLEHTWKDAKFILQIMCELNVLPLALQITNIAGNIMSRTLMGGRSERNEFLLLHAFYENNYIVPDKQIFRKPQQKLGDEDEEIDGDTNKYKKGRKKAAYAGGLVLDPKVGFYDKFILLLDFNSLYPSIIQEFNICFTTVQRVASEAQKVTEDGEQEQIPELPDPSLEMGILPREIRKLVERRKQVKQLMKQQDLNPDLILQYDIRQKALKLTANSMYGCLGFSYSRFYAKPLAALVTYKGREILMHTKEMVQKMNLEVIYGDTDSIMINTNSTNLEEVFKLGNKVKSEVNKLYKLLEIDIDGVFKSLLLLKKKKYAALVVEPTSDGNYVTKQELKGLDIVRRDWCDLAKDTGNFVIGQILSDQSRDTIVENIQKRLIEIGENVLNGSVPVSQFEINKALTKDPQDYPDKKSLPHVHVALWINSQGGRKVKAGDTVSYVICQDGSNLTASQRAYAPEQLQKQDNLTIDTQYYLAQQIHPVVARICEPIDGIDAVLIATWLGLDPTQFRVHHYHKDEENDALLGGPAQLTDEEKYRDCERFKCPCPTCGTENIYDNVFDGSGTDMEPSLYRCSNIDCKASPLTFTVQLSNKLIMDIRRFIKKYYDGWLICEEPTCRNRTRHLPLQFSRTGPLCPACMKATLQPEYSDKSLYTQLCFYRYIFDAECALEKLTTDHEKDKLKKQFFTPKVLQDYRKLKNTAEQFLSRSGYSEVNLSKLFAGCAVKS

CSC[C@H]1C(=O)SC[C@@H](NC(=O)c2nc3ccccc3cc2O)C(=O)NCC(=O)N(C)[C@H]2CSSC[C@@H](C(=O)N1C)N(C)C(=O)CNC(=O)[C@H](NC(=O)c1nc3ccccc3cc1O)CSC(=O)[C@H](CSC)N(C)C2=O [Thiocoraline] (I: {Quinaldoyl(3-OH)}-[dC]G[NMeC][NMeC](Me) / II: {Quinaldoyl(3-OH)}-[dC]G[NMeC][NMeC](Me); thioester I:1-II:C, I:C-II:1; disulfide I:3-II:3)
agent/base pair ratio required to unwind supercoiled DNA ([1]; form I to form II gel mobility): 0.11 agent/base pair ratio
agent/base pair ratio for complete rewinding of supercoiled DNA ([1]; form II to form I gel mobility): 0.44 agent/base pair ratio
inhibition of HIV-1 reverse transcriptase (in words) [2]: weak inhibitor
inhibition of DNA polymerase α [3]: does inhibit
